Assays:
[1] = system: A20 mouse B cell lymphoma; assay: Subcutaneous A20 lymphoma syngeneic model, anti-tumour efficacy; type: in vivo
Text: The in vivo effect of METTL3 inhibition in combination with anti-PD1 immune checkpoint inhibitor was investigated using syngeneic mouse tumour models in immune-competent hosts. Mouse tumour models can be grown in appropriate host strains and are widely used to investigate the effects of therapeutic agents on the immune system and cancer growth. There are a limited range of mouse syngeneic tumour models available, far fewer than human cell lines, and they are widely used in the art to support potential clinical utility of immune stimulatory approaches across multiple indications. We exemplify the potential role of STM3480 and combinations with immune checkpoint inhibitors such as anti-PD-1 antibodies in multiple tumour models including A20 (murine B cell lymphoma), EMT-6 (murine breast cancer) and CT-26 (murine colorectal cancer).
The objective of this study is to assess the anti-tumour efficacy of STM3480 in combination with anti-PD1 in subcutaneous A20 mouse B cell lymphoma cancer model in female BALB/c mice.
A20 (#ATCC TIB-208) mouse B cell lymphoma cells were cultured in (RPMI-1640+10% non H.I. FBS+0.05 mM 2-mercaptoethanol) media. 5×10^5 viable cells in 0.1 ml PBS were injected subcutaneously into the left flank of 7-9 week old female BALB/cN (BALB/cAnNCrl) Crl mice utilising 27 gauge needles following skin disinfection with 70% ethanol.
Tumours were measured three times a week and tumour volumes estimated using the formula 0.5 (L×W^2) by measuring the tumour in two dimensions using electronic callipers for the duration of the study.
Mice were randomly allocated to four treatment groups and treatment commenced when tumours reached a mean volume of ˜50-100 mm^3. Mice were allocated to their treatment groups with uniform mean tumour volume between groups. Treatment was continued for up to 3 weeks, or until individual mice were sacrificed for humane reasons according to Home Office license regulations (e.g. body weight loss >20%; tumour volume >1500 mm^3; tumour ulceration; loss of clinical condition). The final dose was given on day 32 after implantation.
Vehicle for STM3480—Hydroxypropyl-β-Cyclodextrin (HPBCD)/Sodium Acetate buffer pH:4.6 50 mM (10%/90%; w/v): Weigh 1.025 g of sodium acetate anhydrous. Add 700 μl of glacial acetic acid then make up to 500.0 ml with ultrapurified water. pH:4.6 50 mM.
For 1 ml volume 5 mg/ml STM3480 dosing solution: Weigh 5.0 mg of STM00003480 compound (Batch: EV-WZM001-421-002). Add 1.0 mL of HPBCD/Acetate buffer pH:4.6 50 mM (10%/90%; w/v). Magnetic stirring at high speed at ambient temperature; Overnight stirring may be required if there are any signs of precipitation. The formulation is a slight yellow solution with very few particles in suspension. Homogenize with a vortex before administration. […]

MOLM13 AML cell line = assay: AML cell viability, CellTiter-Glo combination matrix, MOLM13; type: cell-based; details: MOLM13 AML cell line
Method: (§1) The sensitivity of AML cell lines to combinations of METTL3 inhibitor and standards of care was determined as described. Dose response curves of venetoclax were determined either alone or in the presence of different concentrations of METTL3 inhibitor that are known to be active in cells.
(§2) Synergistic interactions occur when the IC50 value decreases in the presence of METTL3 inhibitor. […] Antagonistic interactions occur when the IC50 value increases in the presence of METTL3 inhibitor.
(§3) 24 h before cell treatment, homogenize, stain with Trypan blue and count viable cells using CellOMeter Auto T4. Dilute cells in media at 400 000 cells/ml to ensure an exponential growth the day after.
(§4) On treatment day, homogenize, stain with Trypan blue and count viable cells using CellOMeter Auto T4. Dilute to the proper cell seeding density according to Table 6 in cell media.
(§5) • Dispense drug (see Table 7) and METTL3 inhibitor in semi-log dose-response matrix and DMSO in 384-well plates using D300e Nanodispenser (Tecan). • 6× compound solution preparation: add 40 μL of cell medium in compound-containing plates and homogenize using the ViaFlo device (Integra) • Dispense 30 μl of cell suspension per well in three replicate 384-well white Ultra-Low-Attachment plates (Sbio) using ViaFlow device (Integra) • Transfer 6 μL of the 6× compound solution in each 30 μL cell suspension-containing plate. • Incubate at 37° C. 5% CO2 for 3 to 5 days.
(§6) • Add 35 μL CellTiter-Glo (Promega) in wells (vol/vol) using ViaFlo device (Integra). • Incubate at RT 10 min in the dark, with agitation the first minute, and read luminescence on the Ensight device (Perkin Elmer).
(§7) Raw data were converted to % viability by normalization to DMSO controls. IC50 determination was performed using GraphPad Prism and fitting curves to the standard nonlinear regression four parameter equation (Y=Bottom+(Top-Bottom)/(1+(IC50/X)^HillSlope)) least squares method, and synergy was assessed by comparison of IC50 values of the standard of care in the presence or absence of different concentrations of METTL3 inhibitor (see FIGS. 12 to 19).

[2] = system: SKOV3 human ovarian cancer cells; assay: Tumour killing assay (TKA), SKOV3 spheroid / PBMC co-culture; type: cell-based; details: STM3480 0.05 micromolar, FIG. 1 and 2
Method: This experiment evaluates the effects of human donor Peripheral Blood Mononuclear Cells (PBMCs) to attack and kill fluorescently-labelled tumour cells in a co-culture assay. Briefly, test agents are incubated at different concentrations with SKOV3 human ovarian cancer cells in the presence or absence of human donor PBMCs and tumour growth is monitored continuously by real time imaging of the NucLight Red-labelled SKOV3 cells for several days.
NucLight Red (Incucyte, Essen Biosciences)-transduced SK-OV-3 (SK-OV-3-NLR) cells were transferred into Ultra-low attachment 96 well plates with spontaneous spheroid formation occurring over 48 hours. Peripheral blood mononuclear cells (PBMC) were isolated from healthy single donor buffy coats by density separation. Prior to co-culture of SK-OV-3-NLR spheroids with PBMC, SK-OV-3-NLR spheroids were treated with 10 ng/ml of interferon gamma (IFNγ). All treatments, including STM3480 and Pembrolizumab, were added at the point of co-culture in a final total volume of 200 μl/per well. Assay plates were transferred into an IncuCyte S3 and images were collected every 2 hours for 7 days. Following experimental completion, an analysis definition was applied to quantify the Total NLR Integrated Intensity present on a per well basis. Changes in spheroid size were quantified by plotting Total NLR Integrated Intensity against time.

[3] = system: FLT3-mutant MOLM-14 AML cell line; assay: AML cell viability, CellTiter-Glo combination matrix, MOLM-14; type: cell-based
Method: as §3, §4, §5, §6
Raw data were converted to % viability by normalization to DMSO controls.

Kasumi1 AML cell line = assay: AML cell viability, CellTiter-Glo combination matrix, Kasumi1; type: cell-based
Method: as §1, §2, §3, §4, §5, §6, §7

Question: Which results are given for `O=C(NCc1ccc2cc(CNCC3CCC3)[nH]c2c1)c1cc(=O)n2ccccc2n1` [STM3480, N-[(2-{[(cyclobutylmethyl)amino]methyl}-1H-indol-6-yl)methyl]-4-oxo-4H-pyrido[1,2-a]pyrimidine-2-carboxamide]?
Answer: tumour growth compared to the vehicle control (mean tumour volume) ([1]; A20, FIG. 3): reduction of tumour growth; Mean tumour volume d24 ([1]; A20, female BALB/c mice, STM3480 50 mg/kg p.o., anti PD1 10 mg/kg i.p. BIW, up to 3 weeks, 10 per group): 425 mm3; progressive tumour growth, animals ([1]; A20, individual tumours (FIG. 4)): 8/10; No. mice with complete regressions ([1]; A20, STM3480 50 mg/kg p.o., anti PD1 10 mg/kg i.p. BIW, 10 per group): 1; interaction with venetoclax (MOLM13 AML cell line): synergistic; tumour viability (normalized NucLight Red [NLR] fluorescence) against time [2]: greater anti-tumour effect compared to vehicle; interaction with quizartinib ([3]; FLT3-mutant MOLM-14 AML cell line): additive; cell viability with increasing concentrations of METTL3 inhibitor ([3]; MOLM-14, combination with quizartinib): decreasing viability; cell viability with increasing concentrations of METTL3 inhibitor (Kasumi1 AML cell line; Kasumi1, combination with daunorubicin): dose-dependent decrease; interaction with 5′-azacitidine (Kasumi1 AML cell line; Kasumi1 AML cell line): additive; interaction with cytarabine (Kasumi1 AML cell line; Kasumi1 AML cell line): additive; interaction with daunorubicin (Kasumi1 AML cell line; Kasumi1 AML cell line): additive; interaction with venetoclax (Kasumi1 AML cell line; Kasumi1 AML cell line): synergistic
